This is an account of results in ChEMBL document CHEMBL5131427, “Targeted Discovery of Amantamide B, an Ion Channel Modulating Nonapeptide from a South China Sea Oscillatoria Cyanobacterium” (J Nat Prod, 2022).

For one series, the system named is K562. Nature of the series: Cytotoxicity against human K562 cells measured after 72 hrs by MTT assay. In kind it is functional, cell-based. To be noted: K562, 72 h.
A further series deals with CCRF-CEM. Description: Cytotoxicity against human CCRF-CEM cells measured after 72 hrs by MTT assay. In kind it is functional, cell-based. For orientation: Tetrazolium dyes change colour on reduction, which living cells bring about.
The test system of another series is U-937. Nature of the series: Cytotoxicity against human U-937 cells measured after 72 hrs by MTT assay. In kind it is functional, cell-based. The following applies: U-937, 72 h.
Series [1] concerns Primary neocortical neuron. Description: Suppression of spontaneous calcium oscillation frequency in Swiss-Webster mouse primary neocortical neuron at 10 uM incubated for 45 min by Fluo-4 dye based. Type of series: functional, cell-based.
The nature of series [2]: Cytotoxicity against Swiss-Webster mouse primary neocortical neuron at 10 uM incubated for 45 min by multi minute duration test. In kind it is toxicity, cell-based. To be noted: 0.75 h.

The source made the active and inactive calls. No cut-off for these calls is given here. Square brackets hold non-standard residues; d marks the D form. Peptide text beside a SMILES is read from it. * marks the point of attachment. dNMeF = CN[C@H](Cc1ccccc1)C(=O)O; NMeL = CN[C@@H](CC(C)C)C(=O)O; dNMeV = CN[C@@H](C(=O)O)C(C)C; Butyryl = CCCC(=O)*

Regarding `CCCC(=O)N(C)[C@H](C(=O)N(C)[C@@H](CC(C)C)C(=O)N[C@@H](CC(C)C)C(=O)N1CCC[C@H]1C(=O)N(C)[C@@H](C(=O)N[C@H](C(=O)NCC(=O)N(C)[C@H](Cc1ccccc1)C(=O)N1CCC[C@H]1C(=O)OC)[C@@H](C)CC)C(C)C)C(C)C`, the IC50 (in general, the concentration that gives 50% inhibition) stood at 21 µM with K562, 5.6 µM with CCRF-CEM and 7.3 µM with U-937. Besides, the result in series [1] was Active. In addition, the Activity result in series [2] was “Non-Toxic”.
On to `CCCC(=O)N[C@H](C(=O)N(C)[C@@H](CC(C)C)C(=O)N[C@@H](CC(C)C)C(=O)N1CCC[C@H]1C(=O)N(C)[C@@H](C(=O)N[C@H](C(=O)NCC(=O)N(C)[C@H](Cc1ccccc1)C(=O)N1CCC[C@H]1C(=O)OC)[C@@H](C)CC)C(C)C)C(C)C` (Butyryl-V[NMeL]LP[dNMeV]IG[dNMeF]P-OMe), for which the 50% inhibitory concentration (IC50) is above 25 µM in the series on K562, 8.3 µM in the series with CCRF-CEM and 6.1 µM with U-937. The outcome in series [1] was Active. Also, the Activity entry in series [2] is “Non-Toxic”.
Turning to `Nc1cc(F)ccc1NC(=O)c1ccc(CNC(=O)/C=C/c2cccnc2)cc1` [TUCIDINOSTAT], the IC50 is 8.3 µM with K562, 1 µM with CCRF-CEM and 3.3 µM in the series on U-937.
